Results as given in patent US8445440B2, “Dimeric IAP inhibitors” (Novartis AG, priority 2010, dated 2013).

Legend:
XIAP-BIR3 = XIAP-BIR3 (Homo sapiens, UniProt P98170); experiment: Biacore SPR solution competition binding assay vs smac7 mer peptide, XIAP-BIR3; details: citrate salt form tested; 100 nM XIAP-BIR3; 25° C.; read-out: XIAP-BIR3 Binding Biacore (Competitive) EC50
Text: (§1) The compounds described herein above were profiled using a cellular assay (using SKOV3 or Panc3.27 tumor cells) and a binding assay to determine the competition between the compounds of the present invention and smac7 mer peptide for XIAP-BIR3 and cIAP1-BIR3 binding groove occupancy.
(§2) The present method includes utility of a Surface plasmon resonance (SPR)-based biosensor (Biacore™ GE Healthcare, Uppsala, Sweden) to examine competition between the compounds of the present invention and smac7 mer peptide for XIAP-BIR3 and cIAP1-BIR3 binding groove occupancy.
(§3) Biacore™ utilizes the phenomenon of surface plasmon resonance (SPR) to detect and measure binding interactions. In a typical Biacore experiment, one of the interacting molecules is immobilized on a flexible dextran matrix while the interacting partner is flowed over the derivatized surface. A binding interaction results in an increase in mass on the sensor surface and a corresponding direct change in the refractive index of the medium in the vicinity of the sensor surface. Changes in refractive index or signal are recorded in resonance units (R.U.) Signal changes due to association and dissociation of complexes are monitored in a non-invasive manner, continuously and in real-time, the results of which are reported in the form of a sensorgram.
(§4) Biacore™ T100 (GE Healthcare, Uppsala, Sweden) was used to conduct all experiments reported herein. Sensor surface preparation and interaction analyses were performed at 25° C. Buffer and Biacore reagents were purchased from GE Healthcare. Running buffer containing 10 mM Hepes, pH7.4, 150 mM sodium chloride, 1.25 mM Dithiothreitol, 2% Dimethyl sulfoxide and 0.05% polysorbate 20 was utilized throughout all experiments.
(§5) Biotinylated smac7 mer peptide was diluted to 10 nM in running buffer and captured onto a sensor surface pre-derivatized with streptavidin (sensor chip SA) towards peptide surface densities in the range 40-100 R.U. Peptide captured surfaces were blocked with 500 μM PEO2-Biotin (Thermo Scientific).
(§6) Interaction analyses were performed by first equilibrating each compound within a six point seven fold compound dilution series in the range 1 μM to 0.06 nM with either 100 nM XIAP-BIR3 or 6 nM cIAP1-BIR3 for at least one hour during instrument start-up procedures. Protein compound mixtures were then injected over reference and smac7 mer peptide surfaces in series for 60 seconds at a flow-rate of 64 μL/minutes. Surface regeneration was performed at the end of each analysis cycle by a 30 second injection of 10 mM Glycine, pH 2.5, 1M Sodium Chloride, 0.05% polysorbate 20. Additionally, control compound samples and control XIAP-BIR3 or cIAP1-BIR3 samples were prepared and run at regular intervals to monitor surface and assay performance.
(§7) Data analyses were carried out using Biacore™ T100 evaluation software v2.0 to validate assay quality. Binding level report points were plotted versus logarithmic compound concentration values and analyzed in Graphpad prism 5 via non-linear regression using a one-site competition model. EC50 values were generated and used as a measure of inhibitor potency.

cIAP1-BIR3 = cIAP1-BIR3 (Homo sapiens, UniProt Q13490); experiment: Biacore SPR solution competition binding assay vs smac7 mer peptide, cIAP1-BIR3; details: citrate salt form tested; 6 nM cIAP1-BIR3; 25° C.; read-out: CIAP-BIR3 Binding Biacore (Competitive) EC50
Text: as §1, §2, §3, §4, §5, §6, §7

SKOV3 tumor cells = experiment: Cellular assay, SKOV3 tumor cell proliferation (Cell Titer Glo); type: cell-based; details: Homo sapiens, SK-OV-3, citrate salt form tested, 72 hour growth
Protocol: as §1
(§8) On day one adherent SKOV3 and Panc3.27 cells are plated into two 96-well, clear, flat bottom plates. All wells in row A contain 90 uL of media. All wells in rows B-G contain a total volume of 90 uL per well and 2000 cells per well for SKOV3 and 4000 cells per well for Panc3.27 cell lines. Plates are then incubated overnight for 18 hours at 37° C., 5% CO2.
(§9) On day two cells are treated with the compounds of formula M-L-M′. Treatments are done in triplicate. The compounds are first serially diluted in DMSO and then added to media giving a final concentration of 0.2% DMSO when added to cells. Cells are treated with 10 uL of serially diluted compounds of formula M-L-M′ at a final concentration of 1000 nM, 200 nM, 40 nM, 8 nM, 1.6 nM, 0.32 nM, 0.06 nM, 0.013 nM, 0.0026 nM, and one untreated well. Plate two is used as a time zero plate.
(§10) To measure cell viability 50 uL of Cell Titer Glo (CTG) solution is added to row A, media only and B, cells and media. CTG is purchased from Promega Corporation catalog number G7573. The solution is prepared according to manufacturer's instructions. CTG measures the amount of ATP released from viable cells that is proportional to the number of cells in each well. After incubating for ten minutes with CTG plates are measured on a luminescent reader at 700 nm wavelength. Read time is approximately one second per well for a 96-well plate.
(§11) On day five 50 uL of CTG is added to plate one, rows A-G, incubated for 10 minutes at room temperature and read on a luminescent reader. Raw data is adjusted to account for the time zero plate as well as background noise. Triplicate values are averaged and percent control growth is calculated. Percent control growth is calculated using the following logical test: If well read data point (a) is greater than time zero data point (t=0), then 100*[(a)−(t=0)]/[(72 hour total growth)−(t=0)], OR 100*[(a)−(t=0)]/[(t=0)]. Data is represented by line graph with the concentration of compound on the x axis and percent control growth on the y axis.

Panc3.27 tumor cells = experiment: Cellular assay, Panc3.27 tumor cell proliferation (Cell Titer Glo); type: cell-based; details: citrate salt form tested, Panc3.27 cells, 72 hour growth, read-out: PANC proliferation IC50
Protocol: as §1, §8, §9, §10, §11

XIAP-BIR3, sequence (P98170 241-356 limits assumed): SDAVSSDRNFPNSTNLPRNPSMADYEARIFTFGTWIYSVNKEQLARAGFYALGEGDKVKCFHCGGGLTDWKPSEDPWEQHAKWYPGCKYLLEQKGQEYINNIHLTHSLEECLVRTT
cIAP1-BIR3, sequence (Q13490 260-352 limits assumed): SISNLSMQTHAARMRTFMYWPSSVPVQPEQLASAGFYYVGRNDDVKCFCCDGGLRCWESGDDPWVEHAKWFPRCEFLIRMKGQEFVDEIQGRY

Work on CN[C@@H](C)C(=O)N[C@@H](CCCCNC(=O)CCCCCC(=O)NCCCC[C@H](NC(=O)[C@H](C)NC)C(=O)N1CCC[C@H]1c1cncc(C(=O)c2ccc(F)cc2)c1)C(=O)N1CCC[C@H]1c1cncc(C(=O)c2ccc(F)cc2)c1 [Example 1A, Heptanedioic acid bis-{[(S)-6-{(S)-2-[5-(4-fluoro-benzoyl)-pyridin-3-yl]-pyrrolidin-1-yl}-5-((S)-2-methylamino-propionylamino)-6-oxo-hexyl]-amide}] yielded an EC50 (XIAP-BIR3) of 126 to 131 nM, an EC50 (cIAP1-BIR3) of 0.68 to 0.7 nM and an IC50 (SKOV3 tumor cells) of 41 to 77.1 nM. It also gave an IC50 (Panc3.27 tumor cells) of 72.4 to 427 nM.
Molecule CN[C@@H](C)C(=O)N[C@@H](CCCCNC(=O)c1ccc(C(=O)NCCCC[C@H](NC(=O)[C@H](C)NC)C(=O)N2CCC[C@H]2c2cncc(C(=O)c3ccc(F)cc3)c2)cc1)C(=O)N1CCC[C@H]1c1cncc(C(=O)c2ccc(F)cc2)c1 [Example 1C, N,N′-Bis-[(S)-6-{(S)-2-[5-(4-fluorobenzoyl)-pyridin-3-yl]-pyrrolidin-1-yl}-5-((S)-2-methylamino-propionylamino)-6-oxo-hexyl]-terephthalamide] has an EC50 (XIAP-BIR3) of 413 to 425 nM, an EC50 (cIAP1-BIR3) of 4.75 to 4.89 nM and an IC50 (SKOV3 tumor cells) of 84 to 127 nM. The IC50 (Panc3.27 tumor cells) was 63.3 to 147 nM.
CN[C@@H](C)C(=O)N[C@@H](CCCCNS(=O)(=O)c1ccc(-c2ccc(S(=O)(=O)NCCCC[C@H](NC(=O)[C@H](C)NC)C(=O)N3CCC[C@H]3c3cncc(C(=O)c4ccc(F)cc4)c3)cc2)cc1)C(=O)N1CCC[C@H]1c1cncc(C(=O)c2ccc(F)cc2)c1 [Example 1D, (S)-N-((S)-1-((S)-2-(5-(4-fluorobenzoyl)pyridin-3-yl)pyrrolidin-1-yl)-6-(4′-(N-((S)-6-((S)-2-(5-(4-fluorobenzoyl)pyridin-3-yl)pyrrolidin-1-yl)-5-((S)-2-(methylamino)propanamido)-6-oxohexyl)sulfamoyl)biphenyl-4-ylsulfonamido)-1-oxohexan-2-yl)-2-(methylamino)propanamide] was tested, and the EC50 (XIAP-BIR3) was 88.5 to 129 nM, the EC50 (cIAP1-BIR3) was 0.31 to 0.34 nM and the IC50 (SKOV3 tumor cells) was 37.4 to 84.2 nM. For the same molecule, the IC50 (Panc3.27 tumor cells) was 12.3 to 119 nM.
CN[C@@H](C)C(=O)N[C@@H](CCCCNC(=O)c1cccc(C(=O)NCCCC[C@H](NC(=O)[C@H](C)NC)C(=O)N2CCC[C@H]2c2cncc(C(=O)c3ccc(F)cc3)c2)c1)C(=O)N1CCC[C@H]1c1cncc(C(=O)c2ccc(F)cc2)c1 [Example 1E, N,N′-Bis-[(S)-6-{(S)-2-[5-(4-fluoro-benzoyl)-pyridin-3-yl]-pyrrolidin-1-y}-5-((S)-2-methylamino-propionylamino)-6-oxo-hexyl]-isophthalamide] gave an EC50 (XIAP-BIR3) of 139 to 158 nM, an EC50 (cIAP1-BIR3) of 0.47 to 0.52 nM and an IC50 (SKOV3 tumor cells) of 26.7 to 79.4 nM. It also gave an IC50 (Panc3.27 tumor cells) of 26.8 to 185 nM.
In the case of CN[C@@H](C)C(=O)N[C@@H](CCCCNC(=O)CCCCCCCC(=O)NCCCC[C@H](NC(=O)[C@H](C)NC)C(=O)N1CCC[C@H]1c1cncc(C(=O)c2ccc(F)cc2)c1)C(=O)N1CCC[C@H]1c1cncc(C(=O)c2ccc(F)cc2)c1 [Example 1F, Nonanedioic acid bis-{[(S)-6-{(S)-2-[5-(4-fluoro-benzoyl)-pyridin-3-yl]-pyrrolidin-1-yl}-5-((S)-2-methylamino-propionylamino)-6-oxo-hexyl]-amide}], the EC50 (XIAP-BIR3) is reported as 129 to 145 nM, the EC50 (cIAP1-BIR3) is reported as 0.68 to 0.69 nM and the IC50 (SKOV3 tumor cells) is reported as 16.1 to 20.1 nM. The IC50 (Panc3.27 tumor cells) was 12.8 to 106 nM.
Work on CN[C@@H](C)C(=O)N[C@@H](CCCCNC(=O)CCCCCCCCC(=O)NCCCC[C@H](NC(=O)[C@H](C)NC)C(=O)N1CCC[C@H]1c1cncc(C(=O)c2ccc(F)cc2)c1)C(=O)N1CCC[C@H]1c1cncc(C(=O)c2ccc(F)cc2)c1 [Example 1G, Decanedioic acid bis-{[(S)-6-{(S)-2-[5-(4-fluoro-benozyl)-pyridin-3-yl]-pyrrolidin-1-yl}-5-((S)-2-methylamino-propionylamino)-6-oxo-hexyl]-amide}] yielded an EC50 (XIAP-BIR3) of 97.2 to 108 nM, an EC50 (cIAP1-BIR3) of 0.71 nM and an IC50 (SKOV3 tumor cells) of 9.64 to 16.4 nM. The IC50 (Panc3.27 tumor cells) was 5.22 to 27.9 nM.
Work on CN[C@@H](C)C(=O)N[C@@H](CCCCNS(=O)(=O)c1ccc2ccc(S(=O)(=O)NCCCC[C@H](NC(=O)[C@H](C)NC)C(=O)N3CCC[C@H]3c3cncc(C(=O)c4ccc(F)cc4)c3)cc2c1)C(=O)N1CCC[C@H]1c1cncc(C(=O)c2ccc(F)cc2)c1 [Example 1H, (S)-N-((S)-1-((S)-2-(5-(4-fluorobenzoyl)pyridin-3-yl)pyrrolidin-1-yl)-6-(7-(N-((S)-6-((S)-2-(5-(4-fluorobenzoyl)pyridin-3-yl)pyrrolidin-1-yl)-5-((S)-2-(methylamino)propanamido)-6-oxohexyl)sulfamoyl)naphthalene-2-sulfonamido)-1-oxohexan-2-yl)-2-(methylamino)propanamide] yielded an EC50 (XIAP-BIR3) of 46.3 to 53.5 nM, an EC50 (cIAP1-BIR3) of 0.88 nM and an IC50 (SKOV3 tumor cells) of 80.8 to 86.4 nM. It also gave an IC50 (Panc3.27 tumor cells) of 13.3 to 140 nM.
With O=C(NCCCC[C@H](NC(=O)[C@@H]1CCN1)C(=O)N1CCC[C@H]1c1cncc(C(=O)c2ccc(F)cc2)c1)c1ccc(-c2ccc(C(=O)NCCCC[C@H](NC(=O)[C@@H]3CCN3)C(=O)N3CCC[C@H]3c3cncc(C(=O)c4ccc(F)cc4)c3)cc2)cc1 [Example 1K, Biphenyl-4,4′-dicarboxylic acid bis-[((S)-5-[((S)-azetidine-2-carbonyl)-amino]-6-{(S)-2-[5-(4-fluoro-benzoyl)-pyridin-3-yl]-pyrrolidin-1-yl}-6-oxo-hexyl)-amide]] the EC50 (XIAP-BIR3) was 636 to 704 nM, the EC50 (cIAP1-BIR3) was 18.4 to 19.4 nM and the IC50 (SKOV3 tumor cells) was 9420 to 9460 nM. For the same molecule, the IC50 (Panc3.27 tumor cells) was > 10000 nM.
CN[C@@H](C)C(=O)N[C@@H](Cc1ccc(NC(=O)CCCCCC(=O)Nc2ccc(C[C@H](NC(=O)[C@H](C)NC)C(=O)N3CCC[C@H]3c3cncc(C(=O)c4ccc(F)cc4)c3)cc2)cc1)C(=O)N1CCC[C@H]1c1cncc(C(=O)c2ccc(F)cc2)c1 [Example 2A, Heptanedioic acid bis-({4-[(S)-3-{(S)-2-[5-(4-fluoro-benzoyl)-pyridin-3-yl]-pyrrolidin-1-yl}-2-((S)-2-methylamino-propionylamino)-3-oxo-propyl]-phenyl}-amide)] was tested, and the EC50 (XIAP-BIR3) was 146 to 154 nM, the EC50 (cIAP1-BIR3) was 0.73 to 0.74 nM and the IC50 (SKOV3 tumor cells) was 23.5 to 25.8 nM.
Work on CN[C@@H](C)C(=O)N[C@@H](Cc1ccc(NC(=O)CCCCCCCCC(=O)Nc2ccc(C[C@H](NC(=O)[C@H](C)NC)C(=O)N3CCC[C@H]3c3cncc(C(=O)c4ccc(F)cc4)c3)cc2)cc1)C(=O)N1CCC[C@H]1c1cncc(C(=O)c2ccc(F)cc2)c1 [Example 2B, Decanedioic acid bis-({4-[(S)-3-{(S)-2-[5-(4-fluoro-benzoyl)-pyridinyl-3-yl]-pyrrolidin-1-yl}-2-((S)-2-methylamino-propionylamino)-3-oxo-propyl]-phenyl}-amide)] yielded an EC50 (XIAP-BIR3) of 131 to 194 nM, an EC50 (cIAP1-BIR3) of 0.37 to 0.41 nM and an IC50 (SKOV3 tumor cells) of 7.39 to 15.4 nM. For the same molecule, the IC50 (Panc3.27 tumor cells) was 11.7 to 25.9 nM.
